Reference: patent US5516797A, “Immunosuppressive compounds” (Vertex Pharmaceuticals, Incorporated, priority 1994, dated 1996)

Columns and labels:
[1] = biological target: T1, FK-506 binding protein (FKBP) (Homo sapiens, UniProt P62942); experiment: Inhibition of PPIase (rotamase) enzyme activity of FKBP (apparent Ki); format: biochemical; conditions: substrate N-succinylAla-Ala-Pro-Phe-p-nitroanilide, chymotrypsin-coupled
From the text: The inhibition of the PPIase (rotamase) enzyme activity of the FKBP (apparent "Ki" values) can also be measured according to the methods described by either Harding, M. W. et al., Nature 341:758-760 (1989) or Siekierka, J. J. et al., Nature 341:755-757 (1989). The cis-trans isomerization of the proline-alanine peptide bond in a model substrate, N-succinylAla-Ala-Pro-Phe-p-nitroanilide, is monitored spectrophotometrically in a coupled assay with chymotrypsin, which releases 4-nitroanilide from the trans form of the substrate. Fischer, G. et al., Nature 337:476-478 (1989). The inhibitory effect of the addition of different concentrations of inhibitor on the extent of the reaction is determined, and analysis of the change in first order rate constant as a function of inhibitor concentration yields an estimate of the apparent Ki value.

[2] = biological target: T1, FK-506 binding protein (FKBP); experiment: Competitive binding to FKBP against [3H]dihydro-FK-506 (apparent Kd); conditions: competition with [3H]dihydro-FK-506
[3] = test system: PBLs stimulated with JVM human viral transformed B lymphoblastoid cells; experiment: MLR bioassay JVM: inhibition of proliferation in mixed lymphocyte reaction; format: cell-based; conditions: Lymphoblastoid cell, pulsed on day 6, harvested 24 h later
Method: (§1) LB and JVMhuman viraltransformed B lymphoblastoid cell lines stimulated t
(§2) proliferate in a mixed lymphocyte reaction (MLR). The compounds are
(§3) evaluated on their ability to inhibit this proliferation.
(§4) Fresh peripheral blood lymphocytes (PBLs) from LeukoPak cells or whole blood from random normal blood donors (tested HIV-negative and hepatitis negative) are isolated and separated by density centrifugation over Histopaque 1077 (Sigma Chemical Co., St. Louis, Mo.). The murine CTLL cytotoxic T cell line and the human Jurkat T cell line are from ATCC (CTLL-2 ATCC TIB214, JURKAT CLONE E6-1 ATCC TIBl52). The human allogeneic B cell lines used for activation of the fresh PBLs are EBV-transformed lymphocytes from normal healthy adult donors with two completely different HLAhaplotypes. All cell lines were routinely tested for the presence of Mycolasma contamination using the GibcoMycotect test kit and are Mycolasma-free. Culture medium consksts of RPMI 1640 (Gibco, Grand Island, N.Y.) containing penicillin (50 U/ml) and streptomycin (50 μg/ml), L-glutamine 2 mM, 2 mercaptoethanol (5×10^-5), 10% heat-inactivated FCS and 10 mM HEPES.
(§5) All chemical stocks were dissolved in DMSO.
(§6) MLR Bioassays ("LB" and "JVM")
(§7) Antigen activated proliferation of PBLs in a primary mixed lymphocyte reaction was assessed in the presence or absence of different concentrations of tested compounds and control drugs. 5×10^4 fresh PBLs were stimulated with 5×10^3 of Mitomycin C treated-allogeneic EBV-transformed β-lymphoglastoid cells, IB and JVM, in a final volume of 200 μl per well in 96-well round-bottomed plates (Mishell, B. B. and S. M. Shiigi, Selected Methods in Cellular Immunology W. H. Freeman and Co., San Francisco, Calif. (1980); Nelson, P. A. et al., Transplantation 50:286 (1990)). Cultures were pulsed on day 6, harvested 24 h later and counted as in previous section.

[4] = test system: human peripheral blood lymphocytes; experiment: Mitogenesis assay OKT3: inhibition of proliferation of human PBLs; format: cell-based; conditions: Lymphocyte, OKT3 (10^-4 dilution final), 48 h incubation
Method: (§8) PMA and OKT3mitogens used to stimulate proliferation of human peripheral
(§9) blood lymphocytes (PBC). Compounds are evaluated on their ability to
as §4, §5
(§10) Mitogenesis Assays ("PMA" and "OKT3")
(§11) After 48 h incubation (37° C., 5% CO2), cells were pulsed with 1 μCi of ^3 H-thymidine, harvested 24 h later with a Tom Tek cell harvester, and counted in LKB β-scintillation counter.

[5] = test system: human peripheral blood lymphocytes; experiment: Mitogenesis assay PMA: inhibition of proliferation of human PBLs; format: cell-based; conditions: Lymphocyte, PMA (10 ng/ml) plus ionomycin (250 ng/ml), 48 h incubation
Method: as §8, §9, §4, §5, §10, §11

[6] = test system: PBLs stimulated with LB human viral transformed B lymphoblastoid cells; experiment: MLR bioassay LB: inhibition of proliferation in mixed lymphocyte reaction; format: cell-based; conditions: Lymphoblastoid cell, pulsed on day 6, harvested 24 h later
Method: as §1, §2, §3, §4, §5, §6, §7

T1 sequence (P62942 whole entry): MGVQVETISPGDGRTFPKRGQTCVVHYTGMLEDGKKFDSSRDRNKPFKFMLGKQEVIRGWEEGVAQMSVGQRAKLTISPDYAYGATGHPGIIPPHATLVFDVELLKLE

Row | Ki [1] [µM] | Kd [2] [µM] | Structure (SMILES) | IC50 [3] [µM] | IC50 [4] [µM] | IC50 [5] [µM] | IC50 [6] [µM]
1 | 25 | > 5 | O=C(C(=O)N1CCC[C@H]1C(=O)OCc1ccccc1)c1ccccc1 [Compound 2] | – | – | – | –
2 | 7 | 1 | O=C(C(=O)N1CCCC[C@H]1C(=O)Oc1ccc2ccccc2c1)c1ccccc1 [Compound 6] | – | – | – | –
3 | 17 | > 75 | COc1ccccc1C(=O)C(=O)N1CCCC[C@H]1C(=O)OCc1ccccc1 [Compound 8] | – | – | – | –
4 | 5 | 5 | COc1ccc(C(=O)C(=O)N2CCCC[C@H]2C(=O)OCc2ccccc2)cc1 [Compound 10] | – | – | – | –
5 | 2 | 0.6 | COc1cc(OC)cc(C(=O)C(=O)N2CCCC[C@H]2C(=O)OCc2ccccc2)c1 [Compound 11] | – | – | – | –
6 | 50 | 25 | COc1cccc(OC)c1C(=O)C(=O)N1CCCC[C@H]1C(=O)OCc1ccccc1 [Compound 12] | – | – | – | –
7 | 4 | 10 | O=C(C(=O)N1CCCC[C@H]1C(=O)OCc1ccccc1)c1ccc(F)cc1 [Compound 14] | – | – | – | –
8 | 160 | > 75 | O=C(C(=O)N1CCCC[C@H]1C(=O)OCc1ccccc1)c1cccc([N+](=O)[O-])c1 [Compound 15] | – | – | – | –
9 | 130 | > 1000 | O=C(C(=O)N1CCCC[C@H]1C(=O)OCc1ccccc1)c1ccccn1 [Compound 17] | – | – | – | –
10 | > 500 | 10 | O=C(C(=O)N1CCCC[C@H]1C(=O)OCc1ccccc1)c1cccc[n+]1[O-] [Compound 18] | – | – | – | –
11 | 200 | > 500 | CC(C)(C)OC(=O)[C@@H]1CCCN1C(=O)C(=O)c1ccco1 [Compound 19] | – | – | – | –
12 | – | > 12 | O=C(C(=O)N1CCCC[C@H]1C(=O)OCc1ccccc1)c1ccco1 [Compound 20, (S)-Benzyl N-(2-furylglyoxyl)pipecolate] | – | – | – | –
13 | 25 | 20 | O=C(C(=O)N1CCCC[C@H]1C(=O)OCc1ccccc1)c1c[nH]c2ccccc12 [Compound 21] | – | – | – | –
14 | 26 | > 25 | O=C(Cc1ccccc1[N+](=O)[O-])C(=O)N1CCC[C@H]1C(=O)OCc1ccccc1 [Compound 27] | – | – | – | –
15 | 600 | > 500 | COC(=O)C(=O)N1CCC[C@H]1C(=O)OC(C)(C)C [Compound 29] | – | – | – | –
16 | 190 | > 25 | C=CCOC(=O)[C@@H]1CCCCN1C(=O)C(=O)OC [Compound 30] | – | – | – | –
17 | – | > 50 | COC(=O)C(=O)N1CCCC[C@H]1C(=O)OCc1ccccc1 [Compound 31] | – | – | – | –
18 | 45 | > 40 | COC(=O)C(=O)N1CCCC[C@H]1C(=O)OCCC1CCCCC1 [Compound 32] | – | – | – | –
19 | – | 12 | COC(=O)C(=O)N1CCCC[C@H]1C(=O)OCCCC1CCCCC1 [Compound 33] | – | – | – | –
20 | 40 | > 30 | COC(=O)C(=O)N1CCCC[C@H]1C(=O)OC/C(C)=C/c1ccc(OC)cc1 [Compound 36] | – | – | – | –
21 | 70 | > 20 | COC(=O)C(=O)N1CCCC[C@H]1C(=O)OC/C(C)=C/[C@H]1CC[C@@H](O)CC1 [Compound 39] | – | – | – | –

Row | Ki [1] [µM] | Kd [2] [µM] | Structure (SMILES) | IC50 [3] [µM] | IC50 [4] [µM] | IC50 [5] [µM] | IC50 [6] [µM]
22 | 400 | > 300 | CCC(=O)C(=O)N1CCC[C@H]1C(=O)OCc1ccccc1 [Compound 41] | – | – | – | –
23 | 5 | 80 | COc1cccc(C(=O)C(=O)N2CCC[C@H]2C(=O)OCc2ccccc2)c1 [Compound 42] | – | – | – | –
24 | 0.22 | – | COc1cc(C(=O)C(=O)N2CCCC[C@H]2C(=O)OCCc2ccc3ccccc3c2)cc(OC)c1OC [Compound 79] | > 10 | 2.5 | 10 | > 10
25 | 0.5 | – | COc1cc(C(=O)C(=O)N2CCCC[C@H]2C(=O)OCCc2cccc3ccccc23)cc(OC)c1OC [Compound 80] | 10 | 4 | 3 | 10
26 | 0.11 | – | COc1cc(C(=O)C(=O)N2CCCC[C@H]2C(=O)OCCCc2ccccc2)cc(OC)c1OC [Compound 83] | 7.5 | 5.5 | 5.5 | 8.5
27 | 0.8 | – | COc1cc(C(=O)C(=O)N2CCCC[C@H]2C(=O)OCC=CCc2ccccc2)cc(OC)c1OC [Compound 86] | > 10 | > 10 | 9 | > 10
28 | 0.5 | – | COc1cc(C(=O)C(=O)N2CCCC[C@H]2C(=O)OCCC=Cc2ccccc2)cc(OC)c1OC [Compound 87] | > 10 | > 10 | 7 | > 10
29 | 0.78 | – | O=C(C(=O)N1CCCC[C@H]1C(=O)OCCCc1ccccc1)C1=CCCCC1 [Compound 89] | > 10 | > 10 | 8 | > 10
30 | 0.54 | – | O=C(OCCCc1ccccc1)[C@@H]1CCCCN1C(=O)C(=O)C1(F)CCCCC1 [Compound 91] | > 10 | > 10 | > 10 | > 10
31 | 1.4 | – | CCCCOc1cccc(C(=O)C(=O)N2CCCC[C@H]2C(=O)OCCCc2ccccc2)c1 [Compound 92] | > 10 | > 10 | 9 | > 10
32 | 0.35 | – | O=C(Cc1ccccc1)C(=O)N1CCCC[C@H]1C(=O)OCCCCc1ccccc1 [Compound 95] | > 10 | > 10 | > 10 | > 10
33 | 0.6 | – | CC(C)(C)c1ccc(C(=O)C(=O)N2CCCC[C@H]2C(=O)OCCCCc2ccccc2)cc1 [Compound 97] | > 10 | > 10 | > 10 | > 10
34 | 0.12 | – | O=C(CC1CCCCC1)C(=O)N1CCCC[C@H]1C(=O)OCCCCc1ccccc1 [Compound 99] | > 10 | > 10 | > 10 | > 10
35 | 0.25 | – | O=C(C(=O)N1CCCC[C@H]1C(=O)OCCCCc1ccccc1)c1ccc2c(c1)OCO2 [Compound 100] | > 10 | > 10 | > 10 | > 10
36 | 0.44 | – | O=C(C(=O)N1CCCC[C@H]1C(=O)OCCCCc1ccccc1)C1CCOCC1 [Compound 101] | > 10 | > 10 | > 10 | > 10
37 | 14 | – | COc1ccc(C(=O)C(=O)N2CCCC[C@H]2C(=O)OCCCCc2ccccc2)cc1C1CCCCC1 [Compound 102] | 10 | > 10 | > 10 | 10
38 | 0.7 | – | COc1ccc(COCc2coc(C(=O)C(=O)N3CCCC[C@H]3C(=O)OCCCCc3ccccc3)c2)cc1 [Compound 103] | > 10 | 10 | 7 | 10
39 | 0.18 | – | CC(C)(C)C(=O)C(=O)N1CCCC[C@H]1C(=O)OCCCCc1ccccc1 [Compound 104] | > 10 | > 10 | 4 | > 10
40 | 1.6 | – | CCC(=O)C(=O)N1CCCC[C@H]1C(=O)OCCCCc1ccccc1 [Compound 105] | > 10 | > 10 | > 10 | > 10
41 | 0.11 | – | COc1cc(C(=O)C(=O)N2CCCC[C@H]2C(=O)OCCCn2cnc3ccccc32)cc(OC)c1OC [Compound 106] | > 10 | > 10 | 7 | > 10
42 | 0.13 | – | COc1cc(C(=O)C(=O)N2CCCC[C@H]2C(=O)OCCCn2cnc3cncnc32)cc(OC)c1OC [Compound 107] | > 10 | > 10 | 6.5 | > 10
